{
  "source": "paper PMC6978363",
  "about": "“Chaperone mediated detection of small molecule target binding in cells” (Nature Communications, 2020)",
  "biological_target": "T1, c-RAF (Homo sapiens, UniProt P04049)",
  "T1 construct": "gene RAF1",
  "T1 sequence (P04049 whole entry)": "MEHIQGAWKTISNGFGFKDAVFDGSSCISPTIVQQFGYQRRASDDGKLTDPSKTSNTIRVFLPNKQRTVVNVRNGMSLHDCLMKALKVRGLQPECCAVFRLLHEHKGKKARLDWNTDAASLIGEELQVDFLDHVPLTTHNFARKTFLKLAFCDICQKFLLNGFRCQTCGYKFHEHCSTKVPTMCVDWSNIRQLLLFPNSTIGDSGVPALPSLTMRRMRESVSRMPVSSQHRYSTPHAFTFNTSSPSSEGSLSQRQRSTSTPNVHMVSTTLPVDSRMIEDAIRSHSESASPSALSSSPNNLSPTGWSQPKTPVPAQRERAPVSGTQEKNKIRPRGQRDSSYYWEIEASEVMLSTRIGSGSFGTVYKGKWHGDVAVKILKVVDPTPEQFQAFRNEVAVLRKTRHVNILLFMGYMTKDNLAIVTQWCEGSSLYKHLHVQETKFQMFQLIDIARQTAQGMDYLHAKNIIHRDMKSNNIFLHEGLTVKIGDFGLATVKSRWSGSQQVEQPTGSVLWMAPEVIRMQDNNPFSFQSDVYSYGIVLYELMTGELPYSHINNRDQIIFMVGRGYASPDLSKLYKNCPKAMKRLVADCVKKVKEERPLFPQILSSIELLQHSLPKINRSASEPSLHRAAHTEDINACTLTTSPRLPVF",
  "assay": "c-RAF protein level change by immunofluorescence in A549 cells (with and without 17-AAG)",
  "type": "cell-based",
  "data": [
    {"smiles": "Cc1ccc(NC(=O)c2ccnc(C(F)(F)F)c2)cc1-c1cc(N2CCOCC2)nc(N2CC(O)C2)c1", "note": "[Novartis pan-RAF inhibitor]", "values": [
      {"measurement": "c-RAF protein level change by immunofluorescence in A549 cells (with and without)", "result": "The interactions between c-RAF and these inhibitors are examples of a small molecule causing a direct effect on protein abundance"}
    ]}
  ]
}
